The values that follow are results of earlier work, collected in patent US9993445B1, “Oral solution comprising atomoxetine hydrochloride and methods thereof” (TAHO Pharmaceuticals Ltd., priority 2016, dated 2018).

Structures are written as SMILES. Counter-ions that a name gives are not always drawn.

The conditions of this data set: room temperature.

Turning to `CNCCC(Oc1ccccc1C)c1ccccc1` (single isomer, unassigned; (-)) [Atomoxetine hydrochloride, (−)-N-methyl-3-phenyl-3 (o-tolyloxy) propylamine], the soluble in water is 27.8 mg/mL.
